Reference: patent US6271342A, “Sugar-modified cytostatics” (Bayer Aktiengesellschaft, priority 1995, dated 2001)
Counter-ions that a name gives are not always drawn.

Key:
Assay in all cases: Growth inhibition test (MTT) for cytotoxic properties
Conditions in all cases: Table 1b
SW 480 = assay type: cell-based, human
How it was run: (§1)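 IC50 values come from an MTT read at 540 nm (5 h at 37 °C, 5 mg/ml MTT stock), taken on day 3 and day 6. Cells (HT 29, SW 480; 50,000 cells/ml in RPMI/10% FCS) were pre-cultured 1 day, then compound in DMSO was added.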

HT 29 = assay type: cell-based, human
How it was run: as §1

B 16 F 10 = assay type: cell-based, mouse
Experimental: Growth Inhibition Test for Determination of the Cytotoxic Properties of Glycoconjugates of Batracyline and of Quinolone-a
The human colon cell lines SW 480 and HT 29 (ATCC no. CCL 228 and HBT-38) and the mouse melanoma cell line B 16 F 10 were cultured in Roux dishes in RPMI 1640 medium with addition of 10% FCS. The cultures were then trypsinized and taken up in RPMI plus 10% FCS to a cell count of 50,000 cells/ml. 100 μl of cell suspension/well were introduced into a 96 microwell plate and incubated for 1 day at 37° C. in a CO2 incubating cabinet. A further 100 μl of RPMI medium and 1 μl of dimethyl sulphoxide with the test substances were then added. The growth was checked after day 3 and day 6. 40 μl of MTT solution (3-(4,5-dimethylthiazol-2-yl)-2,5-diphenyltetrazoline bromide) with an initial concentration of 5 mg/ml of H2 O were added to each microwave. The plate was incubated for 5 hours in a CO2 incubating cabinet at 37° C. The medium was then sucked off and 100 μl of i-propanol/well were added. After shaking for 30 minutes with 100 μl of H2 O, the extinction was measured at 540 nm with a Titertek Multiskan MCC/340 (Flow).

SMILES | IC50 (SW 480) [µM] | IC50 (HT 29) [µM] | IC50 (B 16 F 10) [µM]
CO[C@H]1[C@H](O)[C@@H](Oc2ccc(NC(=S)NCCCC[C@H](N)C(=O)NC3C=CCC4CN(c5c(F)cc6c(=O)c(C(=O)O)cn(C7CC7)c6c5Cl)CC43)cc2)O[C@@H](C)[C@H]1O (stereo partly drawn) [Example 10.3, N-{N^ε -[O-(3-O-Methyl-β-L-fucosyl)-4-hydroxy-phenylamino-thiocarbonyl]-lysyl}-quinolone-a] | 5 | 4 | 0.7
C[C@@H]1O[C@H](Oc2ccc(NC(=S)NCCCC[C@H](NC(=S)Nc3ccc(O[C@H]4O[C@@H](C)[C@@H](O)[C@@H](OCC(=O)O)[C@@H]4O)cc3)C(=O)NC3C=CCC4CN(c5c(F)cc6c(=O)c(C(=O)O)cn(C7CC7)c6c5Cl)CC43)cc2)[C@@H](O)[C@H](OCC(=O)O)[C@@H]1O (stereo partly drawn) [Example 11.8, N-{N^α,N^ε -Bis-[O-(3-O-carboxymethyl-β-L-fucosyl)-4-hydroxy-phenylamino-thiocarbonyl]-lysyl}-quinolone-a, di-sodium salt] | 12 | 16 | 15
C[C@@H]1O[C@H](Oc2ccc(NC(=S)NCCCC[C@@H](NC(=S)Nc3ccc(O[C@H]4O[C@@H](C)[C@@H](O)[C@@H](OCC(=O)O)[C@@H]4O)cc3)C(=O)NC3C=CCC4CN(c5c(F)cc6c(=O)c(C(=O)O)cn(C7CC7)c6c5Cl)CC43)cc2)[C@@H](O)[C@H](OCC(=O)O)[C@@H]1O (stereo partly drawn) [Example 11.9, N-{N^α,N^ε -Bis-[O-(3-O-carboxymethyl-β-L-fucosyl)-4-hydroxy-phenylamino-thiocarbonyl]-D-lysyl}-quinolone-a, di-sodium salt] | 12 | 12 | 9
CO[C@H]1[C@H](O)[C@H](Oc2ccc(NC(=S)NCCCC[C@@H](NC(=S)Nc3ccc(O[C@@H]4O[C@@H](C)[C@@H](O)[C@@H](OC)[C@@H]4O)cc3)C(=O)NC3C=CCC4CN(c5c(F)cc6c(=O)c(C(=O)O)cn(C7CC7)c6c5Cl)CC43)cc2)O[C@@H](C)[C@H]1O (stereo partly drawn) [Example 11.10, N-{N^α,N^ε -Bis-[O-(3-O-methyl-α-L-fucosyl)-4hydroxy-phenylamino-thiocarbonyl]-D-lysyl}-quinolone-a] | 8 | 20 | 2
CO[C@H]1[C@@H](O)[C@@H](CO)O[C@@H](Oc2ccc(NC(=S)NCCCC[C@@H](NC(=S)Nc3ccc(O[C@@H]4O[C@H](CO)[C@H](O)[C@H](OC)[C@H]4O)cc3)C(=O)NC3C=CCC4CN(c5c(F)cc6c(=O)c(C(=O)O)cn(C7CC7)c6c5Cl)CC43)cc2)[C@@H]1O (stereo partly drawn) [Example 11.16, N-{N^α,N^ε -Bis-[O-(3-O-methyl-β-D-galactopyranosyl)-4-hydroxy-phenylamino-thiocarbonyl]-D-lysyl}-quinolone, sodium salt] | 10 | 10 | 1.5
CO[C@@H]1[C@H](O)[C@@H](Oc2ccc(NC(=S)NCCCC[C@@H](NC(=S)Nc3ccc(O[C@H]4O[C@H](CO)[C@@H](O)[C@H](OC)[C@@H]4O)cc3)C(=O)NC3C=CCC4CN(c5c(F)cc6c(=O)c(C(=O)O)cn(C7CC7)c6c5Cl)CC43)cc2)O[C@H](CO)[C@H]1O (stereo partly drawn) [Example 11.17, N-{N^α,N^ε -Bis-[O-(3-O-methyl-α-D-mannopyranosyl)-4-hydroxy-phenylamino-thiocarbonyl]-D-lysyl}-quinolone-a, sodium salt] | 75 | 75 | 8
CO[C@H]1[C@@H](O)[C@@H](CO)O[C@@H](O[C@H]2[C@H](O)[C@@H](O)[C@H](Oc3ccc(NC(=S)NCCCC[C@@H](NC(=S)Nc4ccc(O[C@@H]5O[C@H](CO)[C@@H](O[C@@H]6O[C@H](CO)[C@H](O)[C@H](OC)[C@H]6O)[C@H](O)[C@H]5O)cc4)C(=O)NC4C=CCC5CN(c6c(F)cc7c(=O)c(C(=O)O)cn(C8CC8)c7c6Cl)CC54)cc3)O[C@@H]2CO)[C@@H]1O (stereo partly drawn) [Example 11.18, N-{N^α,N^ε -Bis-[O-(4-O-(3'-O-methyl-β-D-galactopyranosyl)-β-D-glucopyranosyl)-4-hydroxy-phenylamino-thiocarbonyl]-D-lysyl}-quinolone-a, sodium salt] | 4.5 | 3.5 | 0.5
CC(NC(=O)C(CCCCN)NC(=S)Nc1ccc(OC2OC(C)C(O)C(OCC(=O)O)C2O)cc1)C(=O)NC1C=CCC2CN(c3c(F)cc4c(=O)c(C(=O)O)cn(C5CC5)c4c3Cl)CC21 [Example 12.7, N-{N^α -[O-(3-O-Carboxymethyl-β-L-fucosyl)-4-hydroxy-phenylamino-thiocarbonyl]-lysyl-D-alanyl}-quinolone-a] | 60 | > 250 | 20
COC[C@H]1O[C@@H](Oc2ccc(NC(=S)N[C@@H](CCCCN)C(=O)NC3C=CCC4CN(c5c(F)cc6c(=O)c(C(=O)O)cn(C7CC7)c6c5Cl)CC43)cc2)[C@H](O)[C@@H](OC)[C@H]1O (stereo partly drawn) [Example 12.9, N-{N^α -[O-(3,6-Di-O-methyl-β-D-galactopyranosyl)-4-hydroxy-phenylamino-thiocarbonyl]-lysyl}-quinolone-a, hydrochloride] | 4 | 8 | 2
CO[C@@H]1[C@H](O)[C@@H](Oc2ccc(NC(=S)N[C@@H](CCCCN)C(=O)NC3C=CCC4CN(c5c(F)cc6c(=O)c(C(=O)O)cn(C7CC7)c6c5Cl)CC43)cc2)O[C@H](CO)[C@H]1O (stereo partly drawn) [Example 12.10, N-{N^α -[O-(3-O-Methyl-α-D-mannopyranosyl)-4-hydroxy-phenylamino-thio-carbonyl]-lysyl}-quinolone-a, hydrochloride] | 15 | 15 | 4
COC1C(O)C(CO)OC(OC2C(CO)OC(Oc3ccc(NC(=S)NC(CCCCN)C(=O)NC4C=CCC5CN(c6c(F)cc7c(=O)c(C(=O)O)cn(C8CC8)c7c6Cl)CC54)cc3)C(O)C2O)C1O [Example 12.11, N-{N^α -[O-(4-O-(3'-O-Methyl-β-D-galactopyranosyl)-β-D-glucopyranosyl)-4-hydroxy-phenylamino-thiocarbonyl]-lysyl}-quinolone-a hydrochloride] | 2 | 2 | 0.5
COC1C(O)C(C)OC(Oc2ccc(NC(=S)NC3C=CCC4CN(c5c(F)cc6c(=O)c(C(=O)O)cn(C7CC7)c6c5Cl)CC43)cc2)C1O [Example 12.13, N-[O-(3-O-Methyl-β-L-fucosyl)-4-hydroxy-phenylamino-thiocarbonyl]-quin olone-a] | 35 | 100 | 1
COC1C(O)C(C)OC(Oc2ccc(NC(=S)NC(CN)C(=O)NC3C=CCC4CN(c5c(F)cc6c(=O)c(C(=O)O)cn(C7CC7)c6c5Cl)CC43)cc2)C1O [Example 12.15, N-{N^α -[O-(3-O-Methyl-β-L-fucosyl)-4-hydroxy-phenylamino-thiocarbonyl]-diamino-propionoyl)-quinolone-a, hydrochloride] | 0.3 | 1 | 0.1
COC1C(O)C(C)OC(Oc2ccc(NC(=S)NC(C)C(=O)NC(Cc3ccc(N(CCCl)CCCl)cc3)C(=O)O)cc2)C1O (stereo not drawn) [Example 16.1] | 50 | 100 | 200
COC1C(O)C(C)OC(Oc2ccc(NC(=S)NC(C)C(=O)NC(C)C(=O)NC(Cc3ccc(N(CCCl)CCCl)cc3)C(=O)O)cc2)C1O [Example 16.2, N-{N'-[O-(3-O-Methyl-β-L-fucopyranosyl)-4-hydroxy-phenylamino-thiocarbonyl]-alanyl-alanyl}-melphalan] | 50 | 60 | 80
